In this experiment the test system is Jurkat HIV-luciferase clones. The experiment can be described thus: Jurkat latency reversal assay. The class given is cell-based. As to conditions: Homo sapiens, Jurkat, 48 h. How it is done:
Jurkat HIV-luciferase clones were maintained in RPMI medium 1640 (Gibco by Life Technologies) containing 10% (vol/vol) fetal bovine serum (SAFC/Sigma-Aldrich) and 25 units/mL penicillin, 25 units/mL streptomycin (Gibco by Life Technologies), and were split 1:4 every 3 to 4 days to maintain a cell density of ˜0.3 to 1 million cells/mL. The Jurkat clones were maintained with the addition of 500 nM EFV in the medium. Three Jurkat cell clones (C16, I15, and N6), each harboring one or two integrated HIV proviruses expressing the luciferase reporter gene, were added at equal amounts for a total of 5,000 cells per well to 384-well plates containing compound titrations. Dose-response testing was performed on compounds dissolved in dimethyl sulfoxide (DMSO, Fisher Scientific, Merelbeke, Belgium) dispensed in duplicate serial 3-fold, 14-point titrations using a D300e Digital Droplet Dispenser (Hewlett-Packard) to give final assay concentrations of 10 μM to 2.1 pM in 50 μL of medium at 0.5% DMSO (vol/vol) final concentration. Cells and compound were incubated at 37° C. for 48 hours, unless otherwise indicated, followed by the addition of 20 μL of Steady-Glo® Luciferase (Promega). Luminescence resulting from the induction of the virally expressed luciferase was measured using an EnVision 2102 Multilabel Plate Reader (Perkin Elmer). Dose-response relationships were analyzed with GraphPad PRISM 6 using a four-parameter logistic regression model to calculate the concentration of compound that gives half-maximal response (EC50) and the maximal percent activation compared to the vehicle control.

Where a name gives a salt, the structure may show the parent alone.

What is called EC50 is the midpoint of the concentration-response curve. For `CN[C@@H](C)C(=S)N[C@H]1CCS[C@H]2CC(C)(C)[C@@H](C(=O)N[C@H]3c4ccccc4C[C@H]3OCC#CC#CCO[C@@H]3Cc4ccccc4[C@@H]3NC(=O)[C@H]3N4C(=O)[C@@H](NC(=S)[C@H](C)NC)CCS[C@H]4CC3(C)C)N2C1=O` [compound 15, (4S,4′S,7S,7′S,9aS,9a′S)-N,N′-((1S,1′S,2R,2′R)-(hexa-2,4-diyne-1,6-diylbis(oxy))bis(2,3-dihydro-1H-indene-2,1-diyl))bis(8,8-dimethyl-4-((S)-2-(methylamino)propanethioamido)-5-oxooctahydropyrrolo[2,1-b][1,3]thiazepine-7-carboxamide)], the EC50 is 15.3 nM. With `CN[C@@H](C)C(=O)N[C@H]1CCS[C@H]2CC(C)(C)[C@@H](C(=O)N[C@H](COCCCCCCCCCCCCOC[C@@H](NC(=O)[C@H]3N4C(=O)[C@@H](NC(=O)[C@H](C)NC)CCS[C@H]4CC3(C)C)c3ccccc3)c3ccccc3)N2C1=O` [compound 61, (4S,4′S,7S,7′S,9aS,9a′S)-N,N′-((1S,1′S)-(dodecane-1,12-diylbis(oxy))bis(1-phenylethane-2,1-diyl))bis(8,8-dimethyl-4-((S)-2-(methylamino)propanamido)-5-oxooctahydropyrrolo[2,1-b][1,3]thiazepine-7-carboxamide)] the figure was 11.8 nM; with `CN[C@@H](C)C(=O)N[C@H]1CCS[C@H]2CC(C)(C)[C@@H](C(=O)Nc3ccc(Cc4ccc(NC(=O)[C@H]5N6C(=O)[C@@H](NC(=O)[C@H](C)NC)CCS[C@H]6CC5(C)C)cc4)cc3)N2C1=O` [compound 1, (4S,4′S,7S,7′S,9aS,9a′S)-N,N′-(methylenebis(4,1-phenylene))bis(8,8-dimethyl-4-((S)-2-(methylamino)propanamido)-5-oxooctahydropyrrolo[2,1-b][1,3]thiazepine-7-carboxamide)], 47 nM. As to `CN[C@@H](C)C(=O)N[C@H]1CCS[C@H]2CC(C)(C)[C@@H](C(=O)N[C@H](COCCCCCCCCCCOC[C@@H](NC(=O)[C@H]3N4C(=O)[C@@H](NC(=O)[C@H](C)NC)CCS[C@H]4CC3(C)C)c3ccccc3)c3ccccc3)N2C1=O` [compound 60, (4S,4′S,7S,7′S,9aS,9a′S)-N,N′-((1S,1′S)-(decane-1,10-diylbis(oxy))bis(1-phenylethane-2,1-diyl))bis(8,8-dimethyl-4-((S)-2-(methylamino)propanamido)-5-oxooctahydropyrrolo[2,1-b][1,3]thiazepine-7-carboxamide) dihydrochloride], the EC50 worked out at 3.5 nM. In the case of `CN[C@@H](C)C(=O)N[C@H]1CCS[C@H]2CC(C)(C)[C@@H](C(=O)N[C@H]3c4ccccc4C[C@H]3C(=O)NCC#CC#CCNC(=O)[C@@H]3Cc4ccccc4[C@@H]3NC(=O)[C@H]3N4C(=O)[C@@H](NC(=O)[C@H](C)NC)CCS[C@H]4CC3(C)C)N2C1=O` [compound 49, (4S,7S,9aS)-N-[(1R,2R)-2-[(6-{[(1R,2R)-1-[(4S,7S,9aS)-8,8-dimethyl-4-[(2S)-2-(methylamino)propanamido]-5-oxo-octahydropyrrolo[2,1-b][1,3]thiazepine-7-amido]-2,3-dihydro-1H-inden-2-yl]formamido}hexa-2,4-diyn-1-yl)carbamoyl]-2,3-dihydro-1H-inden-1-yl]-8,8-dimethyl-4-[(2S)-2-(methylamino)propanamido]-5-oxo-octahydropyrrolo[2,1-b][1,3]thiazepine-7-carboxamide], the EC50 was 466 nM. Then `CN[C@@H](C)C(=S)N[C@H]1CCS[C@H]2CC(C)(C)[C@@H](C(=O)N[C@H]3c4ccccc4C[C@H]3OCCCCCCO[C@@H]3Cc4ccccc4[C@@H]3NC(=O)[C@H]3N4C(=O)[C@@H](NC(=S)[C@H](C)NC)CCS[C@H]4CC3(C)C)N2C1=O` [compound 21, (4S,4′S,7S,7′S,9aS,9a′S)-N,N′-((1S,1′S,2R,2′R)-(hexane-1,6-diylbis(oxy))bis(2,3-dihydro-1H-indene-2,1-diyl))bis(8,8-dimethyl-4-((S)-2-(methylamino)propanethioamido)-5-oxooctahydropyrrolo[2,1-b][1,3]thiazepine-7-carboxamide)], with 13 nM; and `CN[C@@H](C)C(=S)N[C@H]1CCS[C@H]2CC(C)(C)[C@@H](C(=O)N[C@H]3c4ccccc4C[C@H]3C(=O)N3CCN(C(=O)[C@@H]4Cc5ccccc5[C@@H]4NC(=O)[C@H]4N5C(=O)[C@@H](NC(=S)[C@H](C)NC)CCS[C@H]5CC4(C)C)CC3)N2C1=O` [compound 47, (4S,7S,9aS)-N-[(1R,2R)-2-{4-[(1R,2R)-1-[(4S,7S,9aS)-8,8-dimethyl-4-[(2S)-2-(methylamino)propanethioamido]-5-oxo-octahydropyrrolo[2,1-b][1,3]thiazepine-7-amido]-2,3-dihydro-1H-indene-2-carbonyl]piperazine-1-carbonyl}-2,3-dihydro-1H-inden-1-yl]-8,8-dimethyl-4-[(2S)-2-(methylamino)propanethioamido]-5-oxo-octahydropyrrolo[2,1-b][1,3]thiazepine-7-carboxamide], with 1.2 nM; and `CN[C@@H](C)C(=S)N[C@H]1CCS[C@H]2CC(C)(C)[C@@H](C(=O)NC3c4ccccc4CC[C@H]3C(=O)N3CCN(C(=O)[C@@H]4CCc5ccccc5C4NC(=O)[C@H]4N5C(=O)[C@@H](NC(=S)[C@H](C)NC)CCS[C@H]5CC4(C)C)CC3)N2C1=O` (stereo in doubt) [compound 8, (4S,4′S,7S,7′S,9aS,9a′S)-N,N′-((1R,1′R,2R,2′R)-(piperazine-1,4-dicarbonyl)bis(1,2,3,4-tetrahydronaphthalene-2,1-diyl))bis(8,8-dimethyl-4-((S)-2-(methylamino)propanethioamido)-5-oxooctahydropyrrolo[2,1-b][1,3]thiazepine-7-carboxamide) dihydrochloride], with 2.4 nM.

As to `CN[C@@H](C)C(=O)N[C@H]1CCS[C@H]2CC(C)(C)[C@@H](C(=O)N[C@H](COCc3ccc4ccc(COC[C@@H](NC(=O)[C@H]5N6C(=O)[C@@H](NC(=O)[C@H](C)NC)CCS[C@H]6CC5(C)C)c5ccccc5)cc4c3)c3ccccc3)N2C1=O` [compound 56, (4S,4′S,7S,7′S,9aS,9a′S)-N,N′-((1S,1′S)-((naphthalene-2,7-diylbis(methylene))bis(oxy))bis(1-phenylethane-2,1-diyl))bis(8,8-dimethyl-4-((S)-2-(methylamino)propanamido)-5-oxooctahydropyrrolo[2,1-b][1,3]thiazepine-7-carboxamide)], the EC50 was determined as 2.9 nM.

Turning to `CN[C@@H](C)C(=S)N[C@H]1CCS[C@H]2CC(C)(C)[C@@H](C(=O)N[C@H]3c4ccccc4C[C@H]3OCCCCO[C@@H]3Cc4ccccc4[C@@H]3NC(=O)[C@H]3N4C(=O)[C@@H](NC(=S)[C@H](C)NC)CCS[C@H]4CC3(C)C)N2C1=O` [compound 17, (4S,4′S,7S,7′S,9aS,9a′S)-N,N′-((1S,1′S,2R,2′R)-(butane-1,4-diylbis(oxy))bis(2,3-dihydro-1H-indene-2,1-diyl))bis(8,8-dimethyl-4-((S)-2-(methylamino)propanethioamido)-5-oxooctahydropyrrolo[2,1-b][1,3]thiazepine-7-carboxamide) dihydrochloride], the 50% effective concentration (EC50) turned out to be 20.7 nM. Regarding `CN[C@@H](C)C(=O)N[C@H]1CCS[C@H]2CC(C)(C)[C@@H](C(=O)N[C@H]3c4ccccc4C[C@H]3OCc3ccc(CO[C@@H]4Cc5ccccc5[C@@H]4NC(=O)[C@H]4N5C(=O)[C@@H](NC(=O)[C@H](C)NC)CCS[C@H]5CC4(C)C)cc3)N2C1=O` [compound 22, (4S,4′S,7S,7′S,9aS,9a′S)-N,N′-((1S,1′S,2R,2′R)-((1,4-phenylenebis(methylene))bis(oxy))bis(2,3-dihydro-1H-indene-2,1-diyl))bis(8,8-dimethyl-4-((S)-2-(methylamino)propanamido)-5-oxooctahydropyrrolo[2,1-b][1,3]thiazepine-7-carboxamide)], the EC50 is 8.8 nM.

Consider `CN[C@@H](C)C(=O)N[C@H]1CCS[C@H]2CC(C)(C)[C@@H](C(=O)N[C@H](COCCCCOC[C@@H](NC(=O)[C@H]3N4C(=O)[C@@H](NC(=O)[C@H](C)NC)CCS[C@H]4CC3(C)C)c3ccccc3)c3ccccc3)N2C1=O` [compound 36, (4S,4′S,7S,7′S,9aS,9a′S)-N,N′-((1S,1′S)-(butane-1,4-diylbis(oxy))bis(1-phenylethane-2,1-diyl))bis(8,8-dimethyl-4-((S)-2-(methylamino)propanamido)-5-oxooctahydropyrrolo[2,1-b][1,3]thiazepine-7-carboxamide) dihydrochloride], for which the EC50 turned out to be 9.5 nM. Then `CN[C@@H](C)C(=O)N[C@H]1CCS[C@H]2CC(C)(C)[C@@H](C(=O)Nc3ccc(CCc4ccc(NC(=O)[C@H]5N6C(=O)[C@@H](NC(=O)[C@H](C)NC)CCS[C@H]6CC5(C)C)cc4)cc3)N2C1=O` [compound 5, (4S,4′S,7S,7′S,9aS,9a′S)-N,N′-(ethane-1,2-diylbis(4,1-phenylene))bis(8,8-dimethyl-4-((S)-2-(methylamino)propanamido)-5-oxooctahydropyrrolo[2,1-b][1,3]thiazepine-7-carboxamide) ditrifluoroacetate], with 53.6 nM.

For the origin of these results see US11492361B2, “Compounds useful in HIV therapy” (GlaxoSmithKline Intellectual Property Development Limited, priority 2018, dated 2022).
